ChEMBL document CHEMBL2401661, “Cyanidin, a natural flavonoid, is an agonistic ligand for liver X receptor alpha and beta and reduces cellular lipid accumulation in macrophages and hepatocytes” (Bioorg Med Chem Lett, 2013)
Calls of active or inactive are those of the source. The rule behind the calls is not given here.

Tests used:
[1] = target: T1, Liver X receptor (Homo sapiens) (UniProt Q13133+P55055); test: Agonist activity at LXR in human HepG2 cells assessed as reduction in cellular triglyceride at 100 uM after 24 hrs; format: cell-based; design: scale not given: the % may be the effect or the level left
T1 sequence (P55055 whole entry, looked up, one chain of several): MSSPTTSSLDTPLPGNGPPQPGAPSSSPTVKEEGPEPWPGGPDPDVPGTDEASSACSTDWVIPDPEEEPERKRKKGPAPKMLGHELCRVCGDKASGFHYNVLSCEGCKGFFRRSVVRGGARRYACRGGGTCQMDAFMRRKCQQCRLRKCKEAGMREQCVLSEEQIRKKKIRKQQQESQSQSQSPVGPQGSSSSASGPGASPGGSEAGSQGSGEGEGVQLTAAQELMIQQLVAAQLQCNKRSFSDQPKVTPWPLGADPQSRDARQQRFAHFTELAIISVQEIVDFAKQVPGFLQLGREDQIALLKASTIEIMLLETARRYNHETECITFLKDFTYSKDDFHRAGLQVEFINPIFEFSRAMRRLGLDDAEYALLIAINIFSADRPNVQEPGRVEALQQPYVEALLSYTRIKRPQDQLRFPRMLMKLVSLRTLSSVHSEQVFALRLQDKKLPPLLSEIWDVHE

[2] = target: T1, Liver X receptor (Homo sapiens); test: Agonist activity at LXR in human THP1 cells assessed as reduction in cellular triglyceride at 100 uM after 24 hrs; format: cell-based; design: scale not given: the % may be the effect or the level left; conditions: THP-1
[3] = target: T1, Liver X receptor (Homo sapiens); test: Agonist activity at LXR in human HepG2 cells assessed as reduction in cellular triglyceride after 24 hrs; format: cell-based
[4] = target: T1, Liver X receptor (Homo sapiens); test: Agonist activity at LXR in human HepG2 cells assessed as reduction in cellular cholesterol after 24 hrs; format: cell-based
[5] = target: T1, Liver X receptor (Homo sapiens); test: Agonist activity at LXR in human THP1 cells assessed as reduction in cellular cholesterol after 24 hrs; format: cell-based; conditions: THP-1
[6] = target: T1, Liver X receptor (Homo sapiens); test: Agonist activity at LXR in human THP1 cells assessed as reduction in cellular triglyceride after 24 hrs; format: cell-based; conditions: THP-1
[7] = target: T1, Liver X receptor (Homo sapiens); test: Agonist activity at LXR in human HepG2 cells assessed as upregulation of ABCG5 expression at 100 uM after 24 hrs by RT-qPCR analysis relative to control; format: cell-based
[8] = target: T1, Liver X receptor (Homo sapiens); test: Agonist activity at LXR in human HepG2 cells assessed as upregulation of SREBP1C expression at 100 uM after 24 hrs by RT-qPCR analysis relative to control; format: cell-based
[9] = target: T1, Liver X receptor (Homo sapiens); test: Agonist activity at LXR in human HepG2 cells assessed as upregulation of ABCA1 expression at 100 uM after 24 hrs by RT-qPCR analysis relative to control; format: cell-based
[10] = target: T2, Oxysterols receptor LXR-beta (Homo sapiens, UniProt P55055); test: Agonist activity at LXRbeta in human HepG2 cells assessed as LXRbeta transcription at 50 to 100 uM after 24 hrs by RT-qPCR analysis; format: cell-based
T2 sequence (P55055 whole entry): as the sequence (P55055 whole entry, looked up, one chain of several) above

[11] = target: T3, Oxysterols receptor LXR-alpha (Homo sapiens) (UniProt Q13133); test: Induction of LXRalpha transcription in human HepG2 cells at 50 to 100 uM after 24 hrs by RT-qPCR analysis relative to control; format: cell-based
T3 sequence (whole entry): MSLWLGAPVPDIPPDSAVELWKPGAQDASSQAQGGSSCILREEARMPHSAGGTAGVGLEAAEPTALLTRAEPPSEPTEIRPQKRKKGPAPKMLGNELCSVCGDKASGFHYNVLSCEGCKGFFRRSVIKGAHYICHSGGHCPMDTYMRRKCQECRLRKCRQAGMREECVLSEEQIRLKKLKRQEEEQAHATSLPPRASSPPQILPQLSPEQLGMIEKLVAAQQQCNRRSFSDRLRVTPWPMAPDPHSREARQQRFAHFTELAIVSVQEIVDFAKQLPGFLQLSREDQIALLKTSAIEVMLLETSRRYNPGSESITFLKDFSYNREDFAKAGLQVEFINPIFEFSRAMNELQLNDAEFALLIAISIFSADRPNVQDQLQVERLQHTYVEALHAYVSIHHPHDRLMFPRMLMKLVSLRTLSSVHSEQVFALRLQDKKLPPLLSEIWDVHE

[12] = target: T2, Oxysterols receptor LXR-beta; test: Agonist activity at human LXRbeta-LBD assessed as recruitment of co-activator peptide after 2 hrs by TR-FRET assay
[13] = target: T4, Oxysterols receptor LXR-alpha (Homo sapiens, UniProt Q13133); test: (§1) Agonist activity at human LXRalpha-LBD assessed as recruitment of co-activator peptide after 2 hrs by TR-FRET assay
T4 sequence (Q13133 whole entry): T3 sequence (whole entry)

[14] = target: T2, Oxysterols receptor LXR-beta; test: Agonist activity at LXRbeta (unknown origin) expressed in CHOK1 cells assessed as induction of transactivation activity at 100 uM after 24 hrs by luciferase reporter gene assay relative to control; format: cell-based; conditions: CHO-K1
[15] = target: T4, Oxysterols receptor LXR-alpha; test: (§2) Binding affinity to human LXRalpha-LBD by surface plasmon resonance
[16] = target: T2, Oxysterols receptor LXR-beta; test: Binding affinity to human LXRbeta-LBD by surface plasmon resonance
[17] = target: T3, Oxysterols receptor LXR-alpha (Homo sapiens); test: Agonist activity at LXRalpha (unknown origin) expressed in CHOK1 cells assessed as induction of transactivation activity at 100 uM after 24 hrs by luciferase reporter gene assay relative to control; format: cell-based; conditions: CHO-K1
[18] = target: T3, Oxysterols receptor LXR-alpha (Homo sapiens); test: Agonist activity at LXRalpha (unknown origin) expressed in CHOK1 cells assessed as induction of transactivation activity at 50 uM after 24 hrs by luciferase reporter gene assay relative to control; format: cell-based; conditions: CHO-K1
[19] = target: T3, Oxysterols receptor LXR-alpha (Homo sapiens); test: as §1
[20] = target: T3, Oxysterols receptor LXR-alpha (Homo sapiens); test: as §2

In the case of `Oc1cc(O)c2cc(O)c(-c3ccc(O)c(O)c3)[o+]c2c1` [CYANIDIN], the Activity [1] is reported as -23%, the Activity [2] is reported as -21% and the Activity [3] is reported as “Dose-dependent effect”. For the same molecule, the Activity [4] was “Dose-dependent effect”, the Activity [5] was “Dose-dependent effect” and the Activity [6] was “Dose-dependent effect”. The fold change (FC) [7] was 1.4, the fold change (FC) [8] was 3.6 and the fold change (FC) [9] was 2.5. The Activity [10] was “inactive”, the fold change (FC) [11] was 1.5 and the EC50 [12] was 125 µM. The EC50 [13] was 3.5 µM, the Activity [14] was 33% and the Kd [15] was 2.2 µM. For the same molecule, the Kd [16] was 73.2 µM, the Activity [17] was 59% and the Activity [18] was 32%.
`O=C(O)c1ccc(O)c(O)c1` was tested, and the Activity [12] was “inactive”, the Activity [19] was “inactive” and the Activity [20] was “inactive”. The Activity [16] was “inactive”.
`CC(C)CC[C@@H](O)[C@@H](C)[C@H]1CC[C@H]2[C@@H]3CC=C4C[C@@H](O)CC[C@]4(C)[C@H]3CC[C@]12C` [22(R)-HYDROXYCHOLESTEROL] showed an EC50 [13] of 1 µM.
With `O=Cc1c(O)cc(O)cc1O` the Activity [12] was “inactive”, the Activity [19] was “inactive” and the Activity [20] was “inactive”. The Activity [16] was “inactive”.
